Results from ChEMBL document CHEMBL5331075, “New antileishmanial quinoline linked isatin derivatives targeting DHFR-TS and PTR1: Design, synthesis, and molecular modeling studies” (Eur J Med Chem, 2023).
pIC50: −log10 of the molar value.

What was measured:
Leishmania major [1] = assay: Antileishmanial activity against Leishmania major promastigotes assessed as parasite growth inhibition incubated for 24 hrs by Alamar blue staining based assay; format: functional, organism-based
Leishmania major [2] = assay: Antileishmanial activity against Leishmania major amastigotes assessed as parasite growth inhibition incubated for 72 hrs by resazurin dye based assay; format: functional, organism-based
Leishmania major [3] = assay: Antileishmanial activity against Leishmania major promastigotes assessed as parasite growth inhibition incubated for 48 hrs; format: functional; parameters: scale not given: the % may be the effect or the level left
Leishmania major [4] = assay: Antileishmanial activity against Leishmania major promastigotes assessed as parasite growth inhibition at 100 uM incubated for 48 hrs in presence of folic acid relative to control; format: functional; parameters: scale not given: the % may be the effect or the level left
[5] = Cytotoxicity against African green monkey Vero cells assessed as reduction in cell viability incubated for 72 hrs by crystal violet staining based analysis; format: toxicity; conditions: chlorocebus sabaeus
[6] = Selectivity index, ratio of CC50 for cytotoxicity against African green monkey Vero cells to IC50 for antileishmanial activity against Leishmania major amastigotes assessed as parasite growth inhibition; format: toxicity, cell-based; conditions: read-out: Ratio CC50/IC50
Leishmania major [7] = assay: Antileishmanial activity against Leishmania major promastigotes assessed as parasite growth inhibition at 100 uM incubated for 48 hrs in presence of folinic acid relative to control; format: functional; parameters: scale not given: the % may be the effect or the level left
Leishmania major [8] = assay: Antileishmanial activity against Leishmania major promastigotes assessed as parasite growth inhibition at 20 uM incubated for 48 hrs in presence of folinic acid relative to control; format: functional; parameters: scale not given: the % may be the effect or the level left
Leishmania major [9] = assay: Antileishmanial activity against Leishmania major promastigotes assessed as parasite growth inhibition at 20 uM incubated for 48 hrs in presence of folic acid relative to control; format: functional; parameters: scale not given: the % may be the effect or the level left

Structure (SMILES) | pIC50 (Leishmania major [1]) | pIC50 (Leishmania major [2]) | also measured
CN1C(=O)/C(=N/Nc2ccnc3cc(Cl)ccc23)c2cc(Cl)ccc21 | 5.73 | 5.49 | –
O=C1Nc2c(F)cccc2/C1=N/Nc1ccnc2cc(Cl)ccc12 | 5.96 | 5.96 | –
O=C1/C(=N/Nc2ccnc3cc(Cl)ccc23)c2ccccc2N1Cc1ccccc1 | 5.40 | 5.16 | –
CCN1C(=O)/C(=N/Nc2ccnc3cc(Cl)ccc23)c2cc(Cl)ccc21 | 5.53 | 5.36 | –
CC(C)CN1C(=O)/C(=N/Nc2ccnc3cc(Cl)ccc23)c2cc(Cl)ccc21 | 5.46 | 5.22 | –
CCCN1C(=O)/C(=N/Nc2ccnc3cc(Cl)ccc23)c2ccccc21 | 5.50 | 5.26 | –
CC(C)CN1C(=O)/C(=N/Nc2ccnc3cc(Cl)ccc23)c2cc(Br)ccc21 | 5.39 | 5.16 | –
CCCN1C(=O)/C(=N/Nc2ccnc3cc(Cl)ccc23)c2cc(Cl)ccc21 | 5.52 | 5.30 | –
COc1cc(Cc2cnc(N)nc2N)cc(OC)c1OC [TRIMETHOPRIM] | – | – | Activity (Leishmania major [3]): 71%; Activity (Leishmania major [4]): 99%
O=C1/C(=N/Nc2ccnc3cc(Cl)ccc23)c2cc(Cl)ccc2N1Cc1ccccc1 | 5.40 | 5.28 | –
O=C1/C(=N/Nc2ccnc3cc(Cl)ccc23)c2cc(Br)ccc2N1Cc1ccccc1 | 5.23 | 5.08 | –
O=C1Nc2ccc(OC(F)(F)F)cc2/C1=N/Nc1ccnc2cc(Cl)ccc12 | 6.18 | 6.03 | Activity (Leishmania major [3]): 28%; CC50 at 72 h [5]: 308 µM; selectivity ratio [6]: 326; Activity (Leishmania major [7]): 98%; Activity (Leishmania major [4]): 93%; Activity (Leishmania major [8]): 96%; Activity (Leishmania major [9]): 86%
CCN1C(=O)/C(=N/Nc2ccnc3cc(Cl)ccc23)c2cc(Br)ccc21 | 5.49 | 5.29 | –
CN1C(=O)/C(=N/Nc2ccnc3cc(Cl)ccc23)c2cc(Br)ccc21 | 5.76 | 5.46 | –
CCN1C(=O)/C(=N\Nc2ccnc3cc(Cl)ccc23)c2ccccc21 | 5.46 | 5.23 | –
CC(C)CN1C(=O)/C(=N\Nc2ccnc3cc(Cl)ccc23)c2ccccc21 | 5.57 | 5.40 | –
O=C1Nc2ccc(Cl)cc2/C1=N/Nc1ccnc2cc(Cl)ccc12 | 6.17 | 5.90 | –
O=C1Nc2ccc(Br)cc2/C1=N/Nc1ccnc2cc(Cl)ccc12 | 6.29 | 6.22 | Activity (Leishmania major [3]): 21%; CC50 at 72 h [5]: 156 µM; selectivity ratio [6]: 258; Activity (Leishmania major [7]): 91%; Activity (Leishmania major [4]): 87%; Activity (Leishmania major [8]): 76%; Activity (Leishmania major [9]): 74%
CN1C(=O)/C(=N\Nc2ccnc3cc(Cl)ccc23)c2ccccc21 | 5.73 | 5.46 | –
O=C1Nc2ccccc2/C1=N/Nc1ccnc2cc(Cl)ccc12 | 6.01 | 5.61 | –
O=C1Nc2ccc(F)cc2/C1=N/Nc1ccnc2cc(Cl)ccc12 | 6.25 | 6.14 | Activity (Leishmania major [3]): 25%; CC50 at 72 h [5]: 184 µM; selectivity ratio [6]: 255; Activity (Leishmania major [7]): 94%; Activity (Leishmania major [4]): 90%; Activity (Leishmania major [8]): 84%; Activity (Leishmania major [9]): 80%
